Data: patent EP4786452A1, “AMIDE COMPOUNDS” (China Pharmaceutical University, priority 2023, dated 2025)
Marks after values point to notes of the source that are not given here.

Experiments:
[1] = 5 µM
Protocol: (§1) 1 mM stock solutions of the test compounds were prepared in DMSO, and a 1 mM stock solution of the reference compound propantheline was prepared in acetonitrile.
(§2) 4 µL of test compound stock solution (or reference compound stock solution) was added to 796 µL of pre-incubated whole blood (CD-1 mouse whole blood or human whole blood) at a final concentration of 5 µM. The final concentration of the solvent was 0.5%. At different time points (including 5 min, 15 min, 30 min, 60 min, and 120 min), a 50 µL aliquot of the whole blood containing the sample was added to a new tube and incubated in a 37 °C water bath with shaking at 60 rpm. The treatment was performed in duplicate. At designated time points, 300 µL of room-temperature quenching solution (a solution of acetonitrile containing internal standards (100 nM alprazolam, 500 nM labetalol, and 2 µM ketoprofen)) was added to the whole blood sample containing the sample to terminate the reaction. 50 µL of whole blood containing the sample was added to a new tube containing 300 µL of room-temperature quenching solution to prepare a sample at 0 min. All samples were vortexed for 5 min. The samples in the plate were centrifuged at 3220 g for 30 min at 4 °C to precipitate the proteins. 100 µL of the supernatant was transferred to a new 96-well plate containing 100 µL of water for LC-MS/MS analysis.
(§3) The peak area ratio was determined by using an extracted ion chromatogram. The proportion of remaining compound at each time point was calculated according to the following formula: Remaining proportion t min (%) = peak area ratio t min / peak area ratio 0 min × 100% [formula] • Peak area ratio t min: peak area ratio of reference compound to test compound at t min; • Peak area ratio 0 min: peak area ratio of reference compound to test compound at time zero.
(§4) The slope value was determined by linear regression on the curve of the natural logarithm of the remaining proportion of the test compound versus the incubation time.
(§5) Determination of in vitro half-life (in vitro t1/2) from the slope value: in vitro t1/2 = 0.693/k [formula] in the formula, k is the rate constant (k = -slope value)

[2] = human, microsomes, 1 µM, pH 7.4
Protocol: (§6) The metabolic stability of compounds disclosed herein in liver microsomes was determined using the following method.
(§7) Liver microsome source: Human liver microsome (Corning, 452117) • 2. Na2HPO4 (Tianjin Guangfu Fine Chemical Research Institute, 20180130) • 3. KH2PO4 (Tianjin Guangfu Fine Chemical Research Institute, 20180920) • 4. MgCl2 (Tianjin Guangfu Fine Chemical Research Institute, 20191216) • 5. NADPH (Solarbio, 1216C022) • 6. Positive control compound: verapamil (Sigma, MKBV4993V) • 7. AB Sciex Triple Quad 4000 liquid chromatography-mass spectrometry system
(§8) Preparation of 100 mM phosphate-buffered saline (PBS): 7.098 g Na2HPO4 was dissolved in 500 mL of purified water by sonication to give solution A. 3.400 g of KH2PO4 was dissolved in 250 mL of purified water by sonication to give solution B. Solution A was placed on a stirrer, and solution B was added slowly until the pH reached 7.4, so as to give a 100 mM PBS buffer. […] Preparation of reaction system The reaction system was prepared according to the table below.
(§9) The reaction system was pre-incubated in a 37 °C water bath for 10 min. 40 µL of 10 mM NADPH solution (in 100 mM phosphate-buffered saline) was added to the reaction system, with the final NADPH concentration being 1 mM. A negative control was prepared by replacing the NADPH solution with 40 µL of phosphate-buffered saline. The negative control was used to exclude the effect of the chemical stability of the compound itself. […] The reaction was initiated by adding 4 µL of 100 µM compound disclosed herein or positive control compound verapamil to the reaction system at a final concentration of 1 µM. […] After 0.5 min, 15 min, 30 min, 45 min, and 60 min of mixing well by using a vortex oscillator, 50 µ L of the incubated sample was taken out, and glacial acetonitrile containing an internal standard of 4 folds was added to terminate the reaction. The sample was centrifuged at 3,220 g for 45 min. 90 µL of the supernatant was transferred to a feeding plate after the centrifugation was completed, and 90 µL ultrapure water was added. The mixture was well mixed for LC-MS/MS analysis.
(§10) All data were calculated by using Microsoft Excel software. The peak areas were determined by using an extracted ion chromatogram. The in vitro half-life (T1/2) of the test compound was determined by linear fitting of the natural logarithm of the elimination proportion of the test compound over time. In vitro half-life (T1/2) was calculated by the slope k: in vitro T1/2 = 0.693/k [formula]
(§11) The in vitro intrinsic clearance (in vitro CLint, unit: µL/min/mg protein) was calculated using the following formula: in vitro CLint = k × volume of incubation solution/enzyme protein content; [formula]

AR = AR antagonistic activity: AR / PSA ARE1 luciferase reporter gene assay in transfected LNCaP cells stimulated with 1 nM DHT; assay type: cell-based
Protocol: LNCaP cells were plated in a 6-well plate (Corning, 3516) at 8 × 10^5 cells/well.
Transfection reagents Lipo 3000 and P3000 (Lipofectamine™ 3000) and AR and PSA ARE1 reporter gene plasmids (Bio (Anhui) Co., Ltd.) (a total of 2.5 µg of plasmids, i.e., 1.25 µg of each plasmid, were added to each well) were left to stand and incubated at room temperature for 10 min, and then 250 µL of the above transfection reagents were added dropwise to each well containing cells.
The cells were washed with PBS, and the medium was replaced with a phenol red-free RPMI-1640 medium containing 5% carbon adsorption serum. The cells were re-plated onto a 96-well plate (Corning, 3603) according to the number of cells plated (2 × 10^4 cells/well).
After cell plating, the test compound (or DMSO or positive control) was added. After at least 30 min of incubation (incubator, 37 °C, 5% CO2), DHT (dihydrotestosterone) was added to the culture system at a final concentration of 1 nM. The culture system was then incubated in a carbon dioxide incubator. The final volume of the system in the plate was 100 µL.
Test compound: 10 mM stock solution, with a final concentration of 3.3 µM or 6.7 µM. Negative control: 0.1% DMSO. Positive control: 30 µM enzalutamide.
After the test compound (or DMSO or positive control) and DHT were co-incubated for 6 or 24 h, the luciferase signal was detected using the Vazyme Bright-Lite substrate. The medium was added at 70 µL/well, and the plate was shaken for 2 min, followed by reading of the luciferase signal.
Assay robustness was confirmed using the DMSO and low concentration control data: Ave_H = Ave (DMSO) [formula] Ave_L = Ave (30000nMenzalutamide) [formula] Inhibition rate (%) = (Ave_H−Sample)/(Ave_H−Ave_L) × 100% [formula] • Ave_H: the measurement of the negative control (0.1% DMSO); • Ave_L: the measurement of the positive control (30 µM enzalutamide); • Sample: the measurement of the test compound;

[3] = 5 µM; remark: listed apart in the source
Protocol: as §1, §2, §3, §4, §5

in vitro [4] = conditions: mouse, blood, Half-life T 1/2 in CD-1 mouse whole blood
Protocol: as §1, §2, §3, §4, §5

in vitro [5] = conditions: human, blood, Half-life T 1/2 in human whole blood
Protocol: as §1, §2, §3, §4, §5

in vitro [6] = conditions: human, microsomes; for microsomal CLint at 1 µM: pH 7.4, In vitro Clint; for half-life at 1 µM: pH 7.4, In vitro T1/2
Protocol: as §6, §7, §8, §9, §10, §11

[7] = incubation time: 24 h, test concentration: 3.3 µM, LNCaP cells, 1 nM DHT, normalised to 0.1% DMSO and 30 µM enzalutamide

**Q.** Which results are given for CSc1cc(NC(=O)C(C)(O)CCCC(=O)OC(C)C)cnc1C#N (single isomer, unassigned) [Compound 018]?
**A.** Half-life T 1/2 in CD-1 mouse whole blood [1]: 4.93 min; In vitro Clint [2]: 247.8 µL/min/mg protein; In vitro T1/2 [2]: 5.6 min; AR antagonism (inhibition rate, %) (AR; 24 h, 6.7 µM): 63.12^c %; Half-life T 1/2 in human whole blood [3]: 194.81 min

**Q.** With CC(O)(CCO)C(=O)Nc1cnc(C#N)c(C(F)(F)F)c1 (centres unmarked) [Compound 002, N-[6-cyano-5-(trifluoromethyl)pyridin-3-yl]-2,4-dihydroxy-2-methylbutanamide] as the compound, how does the “AR antagonism (inhibition rate, %)” value (AR; [7]) read?
**A.** 59.75^a %

**Q.** With CCOC(=O)CCCC(C)(O)C(=O)Nc1cnc(C#N)c([Se]C)c1 (centres unmarked) [Compound 024, Ethyl 6-[(6-cyano-5-methylselanylpyridin-3-yl)amino]-5-hydroxy-5-methyl-6-oxohexanoate] as the compound, how does the “AR antagonism (inhibition rate, %)” value (AR; [7]) read?
**A.** 88.18^a %

**Q.** Which “Half-life T 1/2 in CD-1 mouse whole blood” value [1] does the source give for CCOC(=O)CCCC(C)(O)C(=O)Nc1cnc(C#N)c(C(F)(F)F)c1 (single isomer, unassigned) [Compound 006] here?
**A.** 3.61 min

**Q.** What about the “In vitro Clint” value [2] of the same compound?
**A.** 199.5 µL/min/mg protein

**Q.** And the “In vitro T1/2” value [2]?
**A.** 6.9 min

**Q.** And the “AR antagonism (inhibition rate, %)” value (AR; 24 h, 3.3 µM)?
**A.** 88.13^a %

**Q.** What about the “AR antagonism (inhibition rate, %)” value (AR; 24 h, 6.7 µM) of the same compound?
**A.** 90.51^c %

**Q.** And the “Half-life T 1/2 in human whole blood” value [3]?
**A.** 183.42 min

**Q.** For CC(C)OC(=O)CCCC(C)(O)C(=O)Nc1cnc(C#N)c(C(F)(F)F)c1 (single isomer, unassigned) [Compound 009], which half-life at 5 µM (in vitro [4]) is on record?
**A.** 10 min

**Q.** And the “AR antagonism (inhibition rate, %)” value (AR; 24 h, 6.7 µM)?
**A.** 97.66^c %

**Q.** What about the half-life at 5 µM (in vitro [5]) of the same compound?
**A.** 210 min

**Q.** And the microsomal CLint at 1 µM (in vitro [6])?
**A.** 234 µL/min/mg

**Q.** And the half-life at 1 µM (in vitro [6])?
**A.** 5.9 min

**Q.** Which results are given for CCOC(=O)CCCC(C)(O)C(=O)Nc1cnc(C#N)c(C(F)(F)F)c1 (single isomer, unassigned) [Compound 005]?
**A.** half-life at 5 µM (in vitro [4]): 3.54 min; In vitro Clint [2]: 670.7 µL/min/mg protein; In vitro T1/2 [2]: 2.1 min; AR antagonism (inhibition rate, %) (AR; 6 h, 6.7 µM): 92.96^b %; half-life at 5 µM (in vitro [5]): 119 min

**Q.** Which “AR antagonism (inhibition rate, %)” value (AR; [7]) does the source give for CSc1cc(NC(=O)C(O)CCCC(=O)OC(C)C)cnc1C#N (centres unmarked) [Compound 032, Isopropyl 6-((6-cyano-5-(methylthio)pyridin-3-yl)amino)-5-hydroxy-6-oxohexanoate] here?
**A.** 92.25^a %

**Q.** With COC(=O)CCCC(C)(O)C(=O)Nc1cnc(C#N)c(SC)c1 (single isomer, unassigned) [Compound 015] as the compound, how does the “Half-life T 1/2 in CD-1 mouse whole blood” value [1] read?
**A.** 4.34 min

**Q.** What about the “In vitro Clint” value [2] of the same compound?
**A.** 270.78 µL/min/mg protein

**Q.** And the “In vitro T1/2” value [2]?
**A.** 5.12 min

**Q.** What about the “AR antagonism (inhibition rate, %)” value (AR; 24 h, 3.3 µM) of the same compound?
**A.** 92.46^a %

**Q.** What about the “Half-life T 1/2 in human whole blood” value [3] of the same compound?
**A.** 164.02 min

**Q.** With CCOC(=O)CCCC(C)(O)C(=O)Nc1ccc(C#N)c(SC)c1 (centres unmarked) [Compound 029, Ethyl 6-(4-cyano-3-methylthio-anilino)-5-hydroxy-5-methyl-6-oxohexanoate] as the compound, how does the “AR antagonism (inhibition rate, %)” value (AR; [7]) read?
**A.** 98.41^a %

**Q.** For CCOC(=O)CCCC(C)(O)C(=O)Nc1cnc(C#N)c(SC)c1 (single isomer, unassigned) [Compound 013], which half-life at 5 µM (in vitro [4]) is on record?
**A.** < 0.5 min

**Q.** What about the half-life at 5 µM (in vitro [5]) of the same compound?
**A.** 118 min

**Q.** And the microsomal CLint at 1 µM (in vitro [6])?
**A.** 487 µL/min/mg

**Q.** What about the half-life at 1 µM (in vitro [6]) of the same compound?
**A.** 2.8 min

**Q.** With COC(=O)CCCC(C)(O)C(=O)Nc1cnc(C#N)c(C(F)(F)F)c1 (single isomer, unassigned) [Compound 008] as the compound, how does the “Half-life T 1/2 in CD-1 mouse whole blood” value [1] read?
**A.** 3.94 min

**Q.** What about the “In vitro Clint” value [2] of the same compound?
**A.** 131.2 µL/min/mg protein

**Q.** And the “In vitro T1/2” value [2]?
**A.** 10.6 min

**Q.** And the “AR antagonism (inhibition rate, %)” value (AR; 6 h, 6.7 µM)?
**A.** 92.41^b %

**Q.** What about the “Half-life T 1/2 in human whole blood” value [3] of the same compound?
**A.** 141.44 min

**Q.** Which “AR antagonism (inhibition rate, %)” value (AR; [7]) does the source give for CC(O)(CCCCO)C(=O)Nc1cnc(C#N)c(C(F)(F)F)c1 (centres unmarked) [Compound 001, N-[6-cyano-5-(trifluoromethyl)pyridin-3-yl]-2,6-dihydroxy-2-methyl-hexanamide] here?
**A.** 87.89^a %

**Q.** With CCOC(=O)CCCCC(C)(O)C(=O)Nc1cnc(C#N)c(C(F)(F)F)c1 (centres unmarked) [Compound 027, Ethyl 7-((6-cyano-5-(trifluoromethyl)pyridin-3-yl)amino)-6-hydroxy-6-methyl-7-oxoheptanoate] as the compound, how does the “AR antagonism (inhibition rate, %)” value (AR; [7]) read?
**A.** 76.55^a %

**Q.** Which “AR antagonism (inhibition rate, %)” value (AR; incubation time: 6 h, test concentration: 6.7 µM, LNCaP cells, 1 nM DHT, normalised to 0.1% DMSO and 30 µM enzalutamide) does the source give for CSc1cc(NC(=O)C(C)(O)CCCC(=O)OC(C)(C)C)cnc1C#N (centres unmarked) [Compound 019, tert-butyl 6-((6-cyano-5-(methylthio)pyridin-3-yl)amino)-5-hydroxy-5-methyl-6-oxohexanoate] here?
**A.** 57.98^b %

**Q.** For COC(=O)CCCC(C)(O)C(=O)Nc1cnc(C#N)c(SC)c1 (single isomer, unassigned) [Compound 016], which “Half-life T 1/2 in CD-1 mouse whole blood” value [1] is on record?
**A.** 9.44 min

**Q.** And the “In vitro Clint” value [2]?
**A.** 1216.15 µL/min/mg protein

**Q.** And the “In vitro T1/2” value [2]?
**A.** 1.14 min

**Q.** What about the “Half-life T 1/2 in human whole blood” value [3] of the same compound?
**A.** 70.19 min

**Q.** With CCOC(=O)CCCC(C)(O)C(=O)Nc1ccc(C#N)c(OC)c1 (centres unmarked) [Compound 030, Ethyl 6-(4-cyano-3-methoxy-anilino)-5-hydroxy-5-methyl-6-oxohexanoate] as the compound, how does the “AR antagonism (inhibition rate, %)” value (AR; [7]) read?
**A.** 98.45^a %

**Q.** For COC(=O)CCCC(C)(O)C(=O)Nc1cnc(C#N)c(C(F)(F)F)c1 (single isomer, unassigned) [Compound 007], which half-life at 5 µM (in vitro [4]) is on record?
**A.** 2.7 min

**Q.** And the “AR antagonism (inhibition rate, %)” value (AR; 24 h, 6.7 µM)?
**A.** 100.00^c %

**Q.** What about the half-life at 5 µM (in vitro [5]) of the same compound?
**A.** 82.7 min

**Q.** And the microsomal CLint at 1 µM (in vitro [6])?
**A.** 226 µL/min/mg

**Q.** And the half-life at 1 µM (in vitro [6])?
**A.** 6.1 min

**Q.** For CCOC(=O)CCC[C@](C)(O)C(=O)Nc1cnc(C#N)c(SC)c1 [Compound 014, ethyl (6S)/(6R)-6-((6-cyano-5-(methylthio)pyridin-3-yl)amino)-5-hydroxy-5-methyl-6-oxohexanoate], which “Half-life T 1/2 in CD-1 mouse whole blood” value [1] is on record?
**A.** 1.13 min

**Q.** And the “AR antagonism (inhibition rate, %)” value (AR; incubation time: 24 h, test concentration: 6.7 µM, LNCaP cells, 1 nM DHT, normalised to 0.1% DMSO and 30 µM enzalutamide)?
**A.** 64.39^c %

**Q.** And the “Half-life T 1/2 in human whole blood” value [3]?
**A.** 89.49 min

**Q.** Which results are given for CSc1cc(NC(=O)C(C)(O)CCCC(=O)OC(C)C)cnc1C#N (single isomer, unassigned) [Compound 017]?
**A.** half-life at 5 µM (in vitro [4]): 4.64 min; half-life at 5 µM (in vitro [5]): 206 min; microsomal CLint at 1 µM (in vitro [6]): 243 µL/min/mg; half-life at 1 µM (in vitro [6]): 5.7 min
